Experimental data published in paper PMC10285291, “The impact of CYP2C19 genotype on phenoconversion by concomitant medication” (Frontiers in Pharmacology, 2023).

Tests used:
CYP2C19 [1] = molecular target: T1, CYP2C19 (Homo sapiens, UniProt P33261); assay: S-mephenytoin […]'-hydroxylation inhibition in individual human liver microsomes at […] fluvoxamine, LC-MS/MS; format: cell-based; set-up: human liver microsomes
CYP2C19 [2] = molecular target: T1, CYP2C19; assay: in vitro; settings: microsomes

T1 sequence (P33261 whole entry): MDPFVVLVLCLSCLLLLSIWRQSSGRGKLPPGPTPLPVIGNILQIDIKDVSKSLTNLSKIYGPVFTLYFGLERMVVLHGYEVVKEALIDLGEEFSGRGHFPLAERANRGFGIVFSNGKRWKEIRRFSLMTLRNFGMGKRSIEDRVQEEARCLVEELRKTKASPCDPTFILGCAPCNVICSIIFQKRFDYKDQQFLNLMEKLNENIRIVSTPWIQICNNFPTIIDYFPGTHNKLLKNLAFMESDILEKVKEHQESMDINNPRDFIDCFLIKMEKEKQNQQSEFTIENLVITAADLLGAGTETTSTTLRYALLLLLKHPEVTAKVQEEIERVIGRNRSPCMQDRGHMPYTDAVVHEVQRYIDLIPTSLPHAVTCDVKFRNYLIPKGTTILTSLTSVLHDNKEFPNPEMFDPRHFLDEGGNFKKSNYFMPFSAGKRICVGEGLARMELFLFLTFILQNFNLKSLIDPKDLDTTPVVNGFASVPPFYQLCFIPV

Row | KI (inactivation) (CYP2C19 [2]) | Structure (SMILES) | inhibition at 1 µM (CYP2C19 [1])
1 |  | COCCCC/C(=N\OCCN)c1ccc(C(F)(F)F)cc1 [fluvoxamine] | 85%
2 | 4.47 ± 1.8 µM | COc1ccc2[nH]c([S+]([O-])Cc3ncc(C)c(OC)c3C)nc2c1 (centres unmarked) [omeprazole] | 
